From ChEMBL document CHEMBL5550105, “Progress on synthesis and structure-activity relationships of lamellarins over the past decade” (Eur J Med Chem, 2024) come the findings set out here.

The subject of one experiment is HeLa. The experiment can be described thus: Cytotoxicity against human HeLa cells assessed as reduction in cell viability measured for 48 hrs by crystal violet staining based analysis. In kind it is functional.
The test system of the next experiment is DU-145. The experiment is described as follows: Growth inhibition of human DU-145 cells measured for 72 hrs by SRB assay. The format is functional.
Another experiment addresses Acetylcholinesterase (Homo sapiens, UniProt P22303). The experiment can be described thus: Inhibition of human recombinant AChE using acetylthiocholine iodide substrate incubated for 5 mins by Ellman's spectrophotometric analysis.
Experiment [1] addresses ATP-dependent translocase ABCB1 (Homo sapiens, UniProt P08183). The experiment is described as follows: Inhibition of p-glycoprotein (unknown origin) expressed in MDCK-MDR1 cells. In kind it is cell-based.
A further experiment deals with HT-29. The experiment can be described thus: Growth inhibition of human HT-29 cells measured for 72 hrs by SRB assay. In kind it is functional.
A further experiment concerns MCF7. The experiment is described as follows: Antiproliferative activity against human MCF7 cells assessed as reduction in cell growth incubated for 48 hrs by MTT assay. The format is functional, cell-based. Particulars: MCF7, 48 h. For orientation: Formazan colour is commonly taken as a measure of viable cells.

Sequence of ATP-dependent translocase ABCB1 (P08183 whole entry): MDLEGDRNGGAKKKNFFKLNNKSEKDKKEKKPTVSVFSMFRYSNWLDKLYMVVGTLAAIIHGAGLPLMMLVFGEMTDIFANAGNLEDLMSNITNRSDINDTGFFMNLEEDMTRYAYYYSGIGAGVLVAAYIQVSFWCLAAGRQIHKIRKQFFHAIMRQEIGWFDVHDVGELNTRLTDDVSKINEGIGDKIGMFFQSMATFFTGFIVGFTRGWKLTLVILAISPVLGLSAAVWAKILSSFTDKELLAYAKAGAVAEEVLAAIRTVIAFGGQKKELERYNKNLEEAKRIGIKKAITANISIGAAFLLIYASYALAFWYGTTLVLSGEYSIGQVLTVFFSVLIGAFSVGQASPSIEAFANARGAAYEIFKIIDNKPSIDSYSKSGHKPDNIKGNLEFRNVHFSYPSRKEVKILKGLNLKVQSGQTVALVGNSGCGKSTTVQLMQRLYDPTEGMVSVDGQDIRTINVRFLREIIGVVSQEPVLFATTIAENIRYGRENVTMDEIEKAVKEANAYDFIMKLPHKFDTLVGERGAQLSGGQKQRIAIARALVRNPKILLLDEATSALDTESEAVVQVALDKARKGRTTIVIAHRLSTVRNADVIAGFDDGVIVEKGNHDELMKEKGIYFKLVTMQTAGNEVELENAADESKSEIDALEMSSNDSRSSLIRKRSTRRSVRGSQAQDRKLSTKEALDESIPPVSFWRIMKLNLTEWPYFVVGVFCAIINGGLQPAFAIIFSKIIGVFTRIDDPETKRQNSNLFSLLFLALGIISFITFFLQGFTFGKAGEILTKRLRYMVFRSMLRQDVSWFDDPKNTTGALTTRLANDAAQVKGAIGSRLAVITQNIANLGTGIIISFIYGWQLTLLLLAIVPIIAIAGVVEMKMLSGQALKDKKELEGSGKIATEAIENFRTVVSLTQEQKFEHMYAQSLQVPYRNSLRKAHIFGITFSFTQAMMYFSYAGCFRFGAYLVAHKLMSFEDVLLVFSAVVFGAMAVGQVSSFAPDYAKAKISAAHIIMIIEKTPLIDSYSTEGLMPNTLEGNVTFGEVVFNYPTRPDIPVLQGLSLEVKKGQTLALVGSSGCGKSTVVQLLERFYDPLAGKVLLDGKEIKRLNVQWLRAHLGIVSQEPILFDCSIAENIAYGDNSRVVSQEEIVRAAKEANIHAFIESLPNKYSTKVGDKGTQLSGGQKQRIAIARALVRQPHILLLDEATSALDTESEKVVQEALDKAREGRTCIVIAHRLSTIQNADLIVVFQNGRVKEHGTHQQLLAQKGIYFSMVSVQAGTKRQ
Sequence of Acetylcholinesterase (P22303 whole entry): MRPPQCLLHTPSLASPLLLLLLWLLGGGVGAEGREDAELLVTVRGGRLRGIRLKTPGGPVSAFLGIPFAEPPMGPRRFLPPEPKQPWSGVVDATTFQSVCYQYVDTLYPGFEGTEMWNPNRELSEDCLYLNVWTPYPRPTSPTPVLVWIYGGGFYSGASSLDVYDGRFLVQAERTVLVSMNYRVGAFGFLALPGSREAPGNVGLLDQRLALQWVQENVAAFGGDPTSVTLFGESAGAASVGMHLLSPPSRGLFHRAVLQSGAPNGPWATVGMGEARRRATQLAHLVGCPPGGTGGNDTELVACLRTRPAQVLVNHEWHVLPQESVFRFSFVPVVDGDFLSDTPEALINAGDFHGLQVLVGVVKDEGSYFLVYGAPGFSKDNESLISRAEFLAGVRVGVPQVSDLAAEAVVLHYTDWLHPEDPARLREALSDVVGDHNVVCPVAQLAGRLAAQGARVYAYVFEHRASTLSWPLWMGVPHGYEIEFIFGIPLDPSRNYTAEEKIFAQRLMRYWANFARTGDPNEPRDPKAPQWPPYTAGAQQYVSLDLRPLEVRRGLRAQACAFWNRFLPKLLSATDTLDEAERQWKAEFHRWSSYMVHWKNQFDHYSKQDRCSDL

For `COc1cc(-c2c3c4cc(OC)c(O)cc4[nH]c(=O)c3n3ccc4cc(O)c(OC)cc4c23)ccc1O`, the IC50 with HeLa stood at 317 nM. In the experiment on DU-145, `COc1cc(-c2c3c4cc(OC)c(OC(=O)[C@H](N)C(C)C)cc4oc(=O)c3n3ccc4cc(OC(=O)[C@@H](N)C(C)C)c(OC)cc4c23)ccc1OC(=O)[C@@H](N)C(C)C` showed a 50% growth inhibitory concentration (GI50) of 10.8 nM. On to `CCOc1cc2c(cc1OCC)-c1c(-c3ccc(Cl)cc3)c(/C=N/c3ccc(/N=C/c4c(-c5ccc(Cl)cc5)c5n(c4-c4ccccc4)CCc4cc(OC)c(OC)cc4-5)cc3)c(-c3ccccc3)n1CC2`, for which the IC50 on Acetylcholinesterase worked out at 4690 nM. In experiment [1], `CCOc1cc2c(cc1OCC)-c1c(-c3ccc(F)cc3)c(/C=N/c3ccc(O)cc3)c(-c3ccccc3)n1CC2` registered an IC50 of 1010 nM. The same measure, in the same setting: as for `CCOc1ccc(-c2c(C=O)c(-c3ccco3)n3c2-c2cc(OCC)c(OCC)cc2CC3)cc1OCC`, the figure is 190 nM. `COCCOCCOCC(=O)Oc1ccc(-c2c3c4cc(OC)c(OC(=O)COCCOCCOC)cc4oc(=O)c3n3ccc4cc(O)c(OC)cc4c23)cc1OC` yielded a GI50 in the experiment with HT-29 of 1280 nM.

With `Cc1ccc(-c2nc3c(=O)oc4ccccc4c3c3ccoc23)cc1`, the IC50 in the experiment with MCF7 was 6830 nM.

Consider `COc1cc(-c2c3c4cc(OC)c(O)cc4oc(=O)c3n3ccc4cc(O)c(OC)cc4c23)ccc1O` [LAMELLARIN D], for which the GI50 in the experiment with HT-29 came to 3000 nM; with DU-145, 10.9 nM.

As usually defined, the IC50 is the concentration that gives 50% inhibition. Broadly, the GI50 is the concentration at which growth is held to half of that of the control. High values mean lower sensitivity of the cells, low ones greater sensitivity of the cells.
